Source: PubChem BioAssay AID1259411 (Chemical Carcinogenesis Research Information System (CCRIS), 2018)
Activity calls are given as the source filed them. How the calls were made is not given here.

System: rodent carcinogenicity bioassays, tumor incidence
Experiment: CCRIS carcinogenicity studies
How it was run: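 NCI-built, expert-reviewed records of carcinogenicity and related test outcomes (mutagenicity, tumor promotion/inhibition) compiled from published and report sources, historical span 1985-2011, not updated.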

CCN(N=O)C(=O)NCCO
carcinogen call (Species: RAT, Strain/Sex: F344/FEMALE, Route: INTRAVESICULAR, Dose: 0, 3.6 MG 2/WK FOR 30 WK (STUDY DURATION: LIFETIME), Tumor Site: Type of Lesion: BLADDER: TUMOR, BRAIN: TUMOR): active; positive
carcinogen call (Species: RAT, Strain/Sex: F344/FEMALE, Route: ORAL, Dose: 0, 37, 74 MG/L IN DRINKING WATER 5 D/WK FOR 30 WK (STUDY DURATION: LIFETIME), Dose: 0, 37, 74 MG/L IN DRINKING WATER 5 D/WK FOR 30 WK (STUDY DURATION: LIFETIME), Tumor Site: Type of Lesion: BLADDER: TUMOR, MAMMARY GLAND: TUMOR, UTERUS: TUMOR, NERVOUS SYSTEM: TUMOR, SKIN: TUMOR, MOUTH: TUMOR, Tumor Site: Type of Lesion: BLADDER: TUMOR, MAMMARY GLAND: TUMOR, UTERUS: TUMOR, NERVOUS SYSTEM: TUMOR, SKIN: TUMOR, MOUTH: TUMOR): active; positive
carcinogen call (Species: RAT, Strain/Sex: F344/MALE, Route: GAVAGE, Dose: 0, 3.6 MG IN 0.2 ML ETHYL ACETATE/CORN OIL (1:1) 2/WK FOR 31 WK (TOTAL DOSE: 223 MG) (STUDY DURATION: 80 WK), Tumor Site: Type of Lesion: LUNG: CARCINOMA, ADENOMA, BRAIN: TUMORS, THYROID: CARCINOMA OR ADENOMA, PERITONEUM: MESOTHELIOMA, ZYMBAL GLAND: CARCINOM, Tumor Site: Type of Lesion: LUNG: CARCINOMA, ADENOMA, BRAIN: TUMORS, THYROID: CARCINOMA OR ADENOMA, PERITONEUM: MESOTHELIOMA, ZYMBAL GLAND: CARCINOM): active; positive
carcinogen call (Species: RAT, Strain/Sex: F344/MALE, Route: ORAL, Dose: 0, 37, 74 MG/L IN DRINKING WATER 5 D/WK FOR 30 WK (STUDY DURATION: LIFETIME), Dose: 0, 37, 74 MG/L IN DRINKING WATER 5 D/WK FOR 30 WK (STUDY DURATION: LIFETIME), Tumor Site: Type of Lesion: LUNG: TUMOR, BLADDER: TUMOR, MESOTHELIUM: TUMOR, NERVOUS SYSTEM: TUMOR, SKIN: TUMOR, Tumor Site: Type of Lesion: LUNG: TUMOR, BLADDER: TUMOR, MESOTHELIUM: TUMOR, NERVOUS SYSTEM: TUMOR, SKIN: TUMOR): active; positive

C[C@]12CC[C@@H]3c4ccc(O)cc4CC[C@H]3[C@@H]1C[C@@H](O)C2=O
carcinogen call (Species: HAMSTER, Strain/Sex: SYRIAN/MALE, Route: SUBCUTANEOUS IMPLANT, Dose: 0, 20 MG IN PELLETS IMPLANTED EVERY 2.5 MO FOR 9 MO (STUDY DURATION: 9 MO), Tumor Site: Type of Lesion: KIDNEY: TUMOR): active; positive

NC(=O)N(CCc1ccccc1)N=O
carcinogen call (Species: RAT, Strain/Sex: F344/FEMALE, Route: GAVAGE, Dose: 0, 20 MG/ML (TOTAL DOSE 0; 0.9 MMOL) IN 2 ML ETHYL ACETATE AND CORN OIL (1:2) 2/WK FOR 22 WK (STUDY DURATION: LIFETIME), Dose: 0, 20 MG/ML (TOTAL DOSE 0; 0.9 MMOL) IN 2 ML ETHYL ACETATE AND CORN OIL (1:2) 2/WK FOR 22 WK (STUDY DURATION: LIFETIME), Tumor Site: Type of Lesion: LIVER: TUMOR, FORESTOMACH: SQUAMOUS CELL CARCINOMA): active; positive
carcinogen call (Species: RAT, Strain/Sex: F344/FEMALE, Route: GAVAGE, Dose: 0, 20 MG/ML IN 0.2 ML ETHYL ACETATE AND CORN OIL 2/WK FOR 22 WK (STUDY DURATION: LIFESPAN), Tumor Site: Type of Lesion: FORESTOMACH: TUMOR, LIVER: TUMOR): active; positive
carcinogen call (Species: RAT, Strain/Sex: F344/MALE, Route: GAVAGE, Dose: 0, 20 MG/ML (TOTAL DOSE 0; 0.9 MMOL) IN 2 ML ETHYL ACETATE AND CORN OIL (1:2) 2/WK FOR 22 WK (STUDY DURATION: LIFETIME), Dose: 0, 20 MG/ML (TOTAL DOSE 0; 0.9 MMOL) IN 2 ML ETHYL ACETATE AND CORN OIL (1:2) 2/WK FOR 22 WK (STUDY DURATION: LIFETIME), Tumor Site: Type of Lesion: LIVER: TUMOR, FORESTOMACH: SQUAMOUS CELL CARCINOMA): active; positive
carcinogen call (Species: RAT, Strain/Sex: F344/MALE, Route: GAVAGE, Dose: 0, 20 MG/ML IN 0.2 ML ETHYL ACETATE AND CORN OIL 2/WK FOR 22 WK (STUDY DURATION: LIFESPAN), Tumor Site: Type of Lesion: FORESTOMACH: TUMOR, LIVER: TUMOR, DUODENUM: TUMOR, Tumor Site: Type of Lesion: FORESTOMACH: TUMOR, LIVER: TUMOR, DUODENUM: TUMOR): active; positive

CCCCCC[C@@H](O)C/C=C\CCCCCCCC(=O)O (tested in a mixture with another compound)
carcinogen call (Species: MOUSE, Strain/Sex: C57BL/FEMALE, Route: ORAL, Dose: 0, 5% IN DIET FOR 80 WKS (STUDY DURATION: 80 WKS)): inactive; negative
carcinogen call (Species: MOUSE, Strain/Sex: C57BL/MALE, Route: ORAL, Dose: 0, 5% IN DIET FOR 80 WKS (study duration: 80 WKS)): inactive; negative
carcinogen call (Species: RAT, Strain/Sex: WISTAR/FEMALE, Route: ORAL, Dose: 0, 5% IN DIET FOR 2 YR (STUDY DURATION: 2 YR)): inactive; negative
carcinogen call (Species: RAT, Strain/Sex: WISTAR/MALE, Route: ORAL, Dose: 0, 5% IN DIET FOR 2 YR (STUDY DURATION: 2 YEARS)): inactive; negative

Cc1ccc(N)c(C)c1
carcinogen call (Species: MOUSE, Strain/Sex: CD-1/FEMALE, Route: ORAL, Tumor Site: Type of Lesion: LUNG): active; positive

C=CC(=O)O
carcinogen call (Species: MOUSE, Strain/Sex: C3H/MALE, Route: DERMAL, Dose: 0, 0.20 MG IN 25 µL ACETONE 3/WK FOR LIFESPAN (STUDY DURATION: LIFESPAN)): inactive; negative
carcinogen call (Species: RAT, Strain/Sex: WISTAR/FEMALE, Route: ORAL, Dose: 0, 120, 400, 1200 PPM IN DRINKING WATER FOR 28 MO (STUDY DURATION: 28 MO), Dose: 0, 120, 400, 1200 PPM IN DRINKING WATER FOR 28 MO (STUDY DURATION: 28 MO)): inactive; negative
carcinogen call (Species: RAT, Strain/Sex: WISTAR/MALE, Route: ORAL, Dose: 0, 120, 400, 1200 PPM IN DRINKING WATER FOR 26 MO (STUDY DURATION: 26 MO), Dose: 0, 120, 400, 1200 PPM IN DRINKING WATER FOR 26 MO (STUDY DURATION: 26 MO)): inactive; negative

CC1CN(N=O)CC(C)N1C (configuration not stated)
carcinogen call (Species: RAT, Strain/Sex: F344/FEMALE, Route: ORAL, Dose: 0, 110 MG/L IN DRINKING WATER 5 D/WK FOR 26 WK, STUDY DURATION: 40-50 WK, Dose: 0, 110 MG/L IN DRINKING WATER 5 D/WK FOR 26 WK, STUDY DURATION: 40-50 WK, Tumor Site: Type of Lesion: THYMUS GLAND: LYMPHOMA OR LEUKEMIA, MULTIPLE SITES: LYMPHOMA OR LEUKEMIA, NASAL CAVITY: CARCINOMA, Tumor Site: Type of Lesion: THYMUS GLAND: LYMPHOMA OR LEUKEMIA, MULTIPLE SITES: LYMPHOMA OR LEUKEMIA, NASAL CAVITY: CARCINOMA): active; positive

CCNC(=S)NCC
carcinogen call (Species: MOUSE, Strain/Sex: B6C3F1/FEMALE, Route: ORAL, Dose: 0, 250, 500 PPM IN DIET, Dose: 0, 250, 500 PPM IN DIET): inactive; negative
carcinogen call (Species: MOUSE, Strain/Sex: B6C3F1/MALE, Route: ORAL, Dose: 0, 250, 500 PPM IN DIET, Dose: 0, 250, 500 PPM IN DIET): inactive; negative
carcinogen call (Species: RAT, Strain/Sex: F344/FEMALE, Route: ORAL, Dose: 0, 125, 250 PPM IN DIET, Dose: 0, 125, 250 PPM IN DIET, Tumor Site: Type of Lesion: THYROID GLAND: FOLLICULAR CELL CARCINOMA OR FOLLICULAR CELL ADENOMA): active; positive
carcinogen call (Species: RAT, Strain/Sex: F344/MALE, Route: ORAL, Dose: 0, 125, 250 PPM IN DIET, Dose: 0, 125, 250 PPM IN DIET, Tumor Site: Type of Lesion: THYROID GLAND: FOLLICULAR CELL CARCINOMA OR FOLLICULAR CELL ADENOMA): active; positive

COCCl
carcinogen call (Species: MOUSE, Strain/Sex: ICR/FEMALE, Route: SUBCUTANEOUS, Dose: 300 UG IN 0.05 ML NUJOL 1/WK FOR 685 D, Tumor Site: Type of Lesion: INJECTION SITE: SARCOMA): active; positive

O=C(O)CCCC/C=C(\c1ccccc1)c1cccnc1
carcinogen call (Species: MOUSE, Strain/Sex: CD-1/FEMALE, Route: ORAL, Dose: 0, 10, 30, 100, 300 MG/KG/D IN DIET FOR 2 YR (STUDY DURATION: 2 YR), Dose: 0, 10, 30, 100, 300 MG/KG/D IN DIET FOR 2 YR (STUDY DURATION: 2 YR)): inactive; negative
carcinogen call (Species: MOUSE, Strain/Sex: CD-1/MALE, Route: ORAL, Dose: 0, 10, 30, 100, 300 MG/KG/D IN DIET FOR 2 YR (STUDY DURATION: 2 YR), Dose: 0, 10, 30, 100, 300 MG/KG/D IN DIET FOR 2 YR (STUDY DURATION: 2 YR)): inactive; negative
carcinogen call (Species: RAT, Strain/Sex: STRAIN-CD/FEMALE, Route: ORAL, Dose: 0, 10, 30, 100 MG/KG/D IN DIET FOR 2 YR (STUDY DURATION: 2 YR), Dose: 0, 10, 30, 100 MG/KG/D IN DIET FOR 2 YR (STUDY DURATION: 2 YR)): inactive; negative
carcinogen call (Species: RAT, Strain/Sex: STRAIN-CD/MALE, Route: ORAL, Dose: 0, 10, 30, 100 MG/KG/D IN DIET FOR 2 YR (STUDY DURATION: 2 YR), Dose: 0, 10, 30, 100 MG/KG/D IN DIET FOR 2 YR (STUDY DURATION: 2 YR)): inactive; negative
